Test results: publication PMC4864350, “Fluorogenic Substrates for In Situ Monitoring of Caspase-3 Activity in Live Cells” (PLoS ONE, 2016)
*: point of attachment. MethylRed = CN(C)c1ccc(/N=N/c2ccccc2C(=O)*)cc1; FAM = 5(6)-carboxyfluorescein; peptoid = not defined here; Ahx = NCCCCCC(=O)O

What was measured:
caspase-7 = molecular target: T1, caspase-7 (Homo sapiens, UniProt P55210); experiment: Caspase-7-mediated cleavage at high enzyme concentration analysed by MALDI-TOF MS; assay type: biochemical; settings: 10–20 μM substrate, 0.4 μM enzyme, 2 h, 37 °C
T1 construct: purchased R&D systems, USA
T1 sequence (P55210 24-198 limits assumed): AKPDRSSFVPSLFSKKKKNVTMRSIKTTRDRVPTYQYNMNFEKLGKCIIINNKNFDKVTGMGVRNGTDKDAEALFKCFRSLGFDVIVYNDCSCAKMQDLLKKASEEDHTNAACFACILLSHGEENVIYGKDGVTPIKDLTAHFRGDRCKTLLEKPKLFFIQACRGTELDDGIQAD
T1 sequence (P55210 207-303 limits assumed): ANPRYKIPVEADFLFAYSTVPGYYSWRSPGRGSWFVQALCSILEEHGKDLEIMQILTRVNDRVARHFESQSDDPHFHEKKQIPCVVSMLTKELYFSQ
Method: To confirm how specific 11, 12 and 14 were for caspase-3, these substrates were incubated with high enzyme concentrations (10–20 μM substrate, 0.4 μM enzyme) and the caspase-mediated cleavage analysed by MALDI-TOF MS.
S2 Fig. (A) MALDI-TOF MS spectra of substrate 11 (sequence Asp-Ala-Pro-Asp). (B) After incubation (20 µM) with Caspase-3 for 2 h. (C) After incubation (20 µM) with Caspase-7 for 2 h (detected as the PBS adduct.)
Caspase-3 or caspase-7 (R&D systems, USA) was added to 100 µL of caspase assay buffer (final enzyme concentration 0.4 µM) with the substrates at 10–20 µM. The samples were incubated in Eppendorf Thermomixer® Comfort shaking at 1200 rpm for 2h at 37 °C. MALDI -TOF mass spectra were recorded as described in Table S1 .
(§1) (1 picture or pasted object on this page, not shown here)

HEK293T cells = experiment: Flow cytometry detection of caspase-3 activity in live cells; assay type: cell-based; settings: 27 at 10 μM, 5 h
Method: Fig 4 Flow cytometry analysis of healthy and apoptotic HEK293T cells treated with substrate 27. The cells were incubated 5 h with fluorogenic substrate 27 (10 μM), detached, and analysed by flow cytometry (λEx/Em 488/530 nm, x-axis = fluorescence intensity). (A) Healthy, non-apoptotic cells. (B) Apoptotic cells (induced by 1 μM staurosporine). TEXT PRINTED IN THE PICTURE: (A) no label printed: FITC - 92.7%; FITC + 7.28% | (B) no label printed: FITC - 1.57%; FITC + 98.4% […]
Cell culture was performed in a Heracell 150 incubator (Heraeus) and in a Herasafe KS 18 class II negative-flow cabinet (Heraeus). HEK293T and MCF-7 cells (cultured in high glucose (4.5 mg/mL) DMEM supplemented with 4 mM glutamine, 100 units/mL penicillin, 10 mg/mL streptomycin and 25 mg/mL amphotericin B, and 10% FBS) were seeded onto a 48-well plate at a density of 10^4 cells per well. After 12 hours, the media was removed and substrates 1–14 added at 10 μM in fresh media. Selected wells were also treated with staurosporine (1 μM). After 5 hours, the cells were washed twice with PBS, detached with trypsin/EDTA, harvested with 2% FBS in PBS supplemented with Trypan Blue (0.04%) for analysis on a BD FACSAria® flow cytometer. Fluorescence was evaluated as mean fluorescence intensity (MFI) and estimated <100 u.a. for untreated control cells (consistent values independently of staurosporine addition). Apoptotic cells treated with substrate 1 were used as a positive control to obtain the maximum of fluorescence signal. 50,000 events per sample were plotted in two-dimensional dot plots based on forward and side scattering. The cellular size and complexity (SSC-H vs. FSC-H) were used to gate two populations (alive/apoptotic cells) (debri excluded). The data were analysed using the software Flowjo® 7.5.
Quantification of caspase-3 in apoptotic cells by flow cytometry
Localisation of apoptotic cells by flow cytometry. Flow cytometry analysis of morphology (SSC-A) and size (FSC-A) of HEK293T cells without (left image) and with (right image) treatment with 1 µM staurosporine for 4 h.
Calculation of active caspase-3 concentration inside cells
Substrate 27 was used to quantify caspase-3 per cell.1
1. Calculate FAM-Ahx-Leu-Pro-Asp released per cell:
Fluorescein-labelled microspheres (0.5% SC, ≈ 2 mmol/g),2 were used to generate the standard curve for fluorescence intensity versus amount of the fluorophore (nmol) by flow cytometry (see below).
Kossler, S.; Nofziger, C.; Jakab, M.; Dossena, S.; Paulmichl, M. Toxicology, 2012, 292, 123-135.
2 a) A. uncit-Broceta, E.M.V. Johansson, R.M. Yusop, R.M. Sanchez-Martin and M. Bradley, Nat.
Protocol, 2012, 7, 1207-1218. b) J.M. Cardenas-Maestre and R.M. Sanchez-Martin, Org. Biomol. Chem., […]
as §1
FAM standard curve to determine conversion factor (7x109 MFI/nmol) representing FI (Fluorescence Intensity) versus FAM quantity (nmol).
To determine the concentration of FAM-Ahx-Leu-Pro-Asp released per cell (nmol/cell) = [FI/cell – FI0/cell]/7x109 FI/nmol
Assuming 20 µm cell diameter and 2/3 of that for the nucleus, the cytoplasmic volume of HEK293T cell is 3 pl (VC).1,3
FAM-Ahx-Leu-Pro-Asp released per cell (M) = FAM-Ahx-Leu-Pro-Asp released per […]
2. Calculate the rate of product formation V0 with 5 h staurosporine treatment:
V0 = d[P]/dt = FAM-Ahx-Leu-Pro-Asp released per cell (mM)/18000 sec
3. Quantify the concentration of the enzyme per cell at high substrate concentrations (enzyme saturation) […]
kcat = 0.04 s-1 (sensor 27 DLPDK)
[E] = enzyme concentration per cell (nM)
[Caspase-3] = 15.65 ± 0.46 nM (1.3 ng active caspase 3 per 106 apoptotic staurosporine- […]
3 Y. Liu, X. Yan and T. Zhou, PLOS one, 2013, 8, 8.
4. Quantify the number of molecules per cell of caspase-3
NoE (number of enzyme molecules per cell) = [E]xVCxNA […]

MCF-7 cells = experiment: Confocal imaging of staurosporine-treated cells lacking functional caspase-3; assay type: cell-based; settings: cells lack functional caspase-3 but express caspase-7
Method: Fig 5 Confocal microscopy images of HEK293T and MCF-7 cells treated with substrate 27. Confocal microscopy images (objective HCX PL APO ×63/1.40–0.6 Oil CS) of HEK273T cells with substrate 27 (10 μM) without staurosporine (STS) (A) and with staurosporine (1 μM) (B) induced apoptosis (green fluorescence is from fluorescein “turned on” by caspase-3 cleavage of the substrate, blue is DAPI nuclear stain). (C) Staurosporine treated MCF-7 cells with substrate 27.
Cell culture was performed in a Heracell 150 incubator (Heraeus) and in a Herasafe KS 18 class II negative-flow cabinet (Heraeus). […] Fluorescence was evaluated as mean fluorescence intensity (MFI) and estimated <100 u.a. for untreated control cells (consistent values independently of staurosporine addition). Apoptotic cells treated with substrate 1 were used as a positive control to obtain the maximum of fluorescence signal. […] The data were analysed using the software Flowjo® 7.5.
For confocal microscopy, the cells were fixed with 4% paraformaldehyde in PBS and the nuclei stained with Hoechst-33342 (1% w/v in PBS). Cellular fluorescence of cells was analysed using an Inverted Leica DM IRB with filter I3 (450–490 nm) and a Leica SP5 Confocal (FITC and DAPI channel).

[1] = apoptosis induced by 1 μM staurosporine (Fig 4B)

cleavage by caspase-7 (MALDI-TOF MS) (caspase-7): did not show any cleavage
Substance: substrate 27: FAM-Ahx-Asp-Leu-Pro-Asp-Lys(MR)-Ahx, conjugated to the cell penetrating peptoid at the C-terminus ({FAM-Ahx}-DLPDK(MethylRed)-{Ahx-peptoid}; reading uncertain; also: printed as FAM-Ahx-Asp-Leu-Pro-Asp-Lys(MR)-Ahx)
FITC + cells, apoptotic (HEK293T cells; [1]): 98.4%
FITC - cells, apoptotic (HEK293T cells; [1]): 1.57%
increase in fluorescence without staurosporine (HEK293T cells; no staurosporine, flow cytometry): no increase observed
FITC + cells, healthy (HEK293T cells; non-apoptotic cells (Fig 4A)): 7.28%
FITC - cells, healthy (HEK293T cells; non-apoptotic cells (Fig 4A)): 92.7%
increase in the fluorescence intensity of the cells after apoptotic stimulation (HEK293T cells; staurosporine 1 μM, flow cytometry λEx/Em 488/530 nm): 2.5 fold
fluorescence turn-on in apoptotic MCF-7 cells (confocal) (MCF-7 cells): No fluorescence “turn-on” was observed
